Source: ChEMBL document CHEMBL4828726, “Modification of 5-methylphenanthridium from benzothiazoles to indoles as potent FtsZ inhibitors: Broadening the antibacterial spectrum toward vancomycin-resistant enterococci” (Eur J Med Chem, 2021)
Active and inactive are the calls of the source. No cut-off for these calls is given here.

Assays:
Staphylococcus aureus [1] = assay: Antibacterial activity against Staphylococcus aureus ATCC 25923 assessed as fold increase in MIC value measured after 15 passages by Multi passage resistance assay; type: functional
Staphylococcus aureus [2] = assay: Antibacterial activity against Staphylococcus aureus ATCC 25923 assessed as fold increase in MIC value measured after 1 passage by Multi passage resistance assay; type: functional
Bacillus subtilis [3] = assay: Ratio of MBC to MIC against penicillin-susceptible Bacillus subtilis ATCC 9372; type: functional
Enterococcus faecalis [4] = assay: Antibacterial activity against Vancomycin-susceptible Enterococcus faecalis ATCC 29212 assessed as inhibition of bacterial growth measured after 20 hrs by two-fold microdilution assay; type: functional
Streptococcus pyogenes [5] = assay: Antibacterial activity against erythromycin-susceptible Streptococcus pyogenes assessed as inhibition of bacterial growth measured after 20 hrs by two-fold microdilution assay; type: functional
[6] = system: Staphylococcus epidermidis; assay: Antibacterial activity against penicillin-resistant Staphylococcus epidermidis assessed as inhibition of bacterial growth measured after 20 hrs by two-fold microdilution assay; type: functional
Staphylococcus aureus [7] = assay: Bactericidal activity against methicillin-resistant Staphylococcus aureus ATCC43300 assessed as inhibition of bacterial growth measured after 20 hrs by two-fold microdilution assay; type: functional
Staphylococcus aureus [8] = assay: Antibacterial activity against methicillin-resistant Staphylococcus aureus ATCC43300 assessed as inhibition of bacterial growth measured after 20 hrs by two-fold microdilution assay; type: functional
Staphylococcus aureus [9] = assay: Ratio of MBC to MIC against erythromycin-susceptible Staphylococcus aureus ATCC 25923; type: functional
Pseudomonas aeruginosa [10] = assay: Anti-biofilm activity against Pseudomonas aeruginosa ATCC 27853 assessed as inhibition of biofilm formation at 4 to 64 ug/ml measured after 20 hrs by crystal violet staining based biofilm formation inhibition assay; type: functional, organism-based; settings: dose 4-64 µg/ml
Staphylococcus aureus [11] = assay: Bactericidal activity against erythromycin-susceptible Staphylococcus aureus ATCC 25923 assessed as inhibition of bacterial growth measured after 20 hrs by two-fold microdilution assay; type: functional
[12] = Hemolytic activity against mouse RBC at 1 to 16 ug/ml measured after 1 hr by hemolysis assay relative to Triton X-100; type: ADME, cell-based, Erythrocyte; settings: mouse red blood cells (erythrocytes), at 1 to 16 µg/mL, dose 1-16 µg/ml, read-out: Activity
Staphylococcus aureus [13] = assay: Antibacterial activity against Staphylococcus aureus ATCC 25923 assessed as fold change in MIC value measured after 14 passages by Multi passage resistance assay; type: functional, organism-based
Staphylococcus aureus [14] = assay: Antibacterial activity against clinical isolate Staphylococcus aureus C1 assessed as inhibition of bacterial growth measured after 20 hrs by two-fold microdilution assay; type: functional
Staphylococcus aureus [15] = assay: Antibacterial activity against Staphylococcus aureus ATCC 25923 assessed as fold increase in MIC value measured after 10 passages by Multi passage resistance assay; type: functional, organism-based
Bacillus subtilis [16] = assay: Antibacterial activity against penicillin-susceptible Bacillus subtilis ATCC 9372 assessed as inhibition of bacterial growth measured after 20 hrs by two-fold microdilution assay; type: functional
Enterococcus faecium [17] = assay: Antibacterial activity against Vancomycin-susceptible Enterococcus faecium ATCC 19434 assessed as inhibition of bacterial growth measured after 20 hrs by two-fold microdilution assay; type: functional
Staphylococcus aureus [18] = assay: Antibacterial activity against Staphylococcus aureus ATCC 25923 assessed as reduction of colony forming units at 32 ug/ml measured up to 24 hrs by Time kill assay; type: functional; set-up: scale not given: the % may be the effect or the level left; settings: dose 32 µg/ml; time hrs <=24
Staphylococcus aureus [19] = assay: Antibacterial activity against penicillin-resistant Staphylococcus aureus ATCC 31007 assessed as inhibition of bacterial growth measured after 20 hrs by two-fold microdilution assay; type: functional
Streptococcus pyogenes [20] = assay: Antibacterial activity against erythromycin-resistant Streptococcus pyogenes assessed as inhibition of bacterial growth measured after 20 hrs by two-fold microdilution assay; type: functional
Staphylococcus aureus [21] = assay: Antibacterial activity against erythromycin-susceptible Staphylococcus aureus ATCC 25923 assessed as inhibition of bacterial growth measured after 20 hrs by two-fold microdilution assay; type: functional
Escherichia coli = assay: Antibacterial activity against penicillin-susceptible Escherichia coli ATCC 25922 assessed as inhibition of bacterial growth measured after 20 hrs by two-fold microdilution assay; type: functional
Enterococcus faecium [22] = assay: Antibacterial activity against Vancomycin-resistant Enterococcus faecium ATCC 51559 assessed as inhibition of bacterial growth measured after 20 hrs by two-fold microdilution assay; type: functional
Pseudomonas aeruginosa [23] = assay: Antibacterial activity against penicillin-susceptible Pseudomonas aeruginosa ATCC 27853 assessed as inhibition of bacterial growth measured after 20 hrs by two-fold microdilution assay; type: functional
Staphylococcus aureus [24] = assay: Ratio of MBC to MIC against methicilline-resistant Staphylococcus aureus ATCC43300; type: functional
Bacillus subtilis [25] = assay: Bactericidal activity against penicillin-susceptible Bacillus subtilis ATCC 9372 assessed as inhibition of bacterial growth measured after 20 hrs by two-fold microdilution assay; type: functional
Bacillus pumilus [26] = assay: Bactericidal activity against penicillin-susceptible Bacillus pumilus CMCC63202 assessed as inhibition of bacterial growth measured after 20 hrs by two-fold microdilution assay; type: functional
Staphylococcus aureus [27] = assay: Bactericidal activity against penicillin-resistant Staphylococcus aureus ATCC 31007 assessed as inhibition of bacterial growth measured after 20 hrs by two-fold microdilution assay; type: functional
Bacillus pumilus [28] = assay: Antibacterial activity against penicillin-susceptible Bacillus pumilus CMCC63202 assessed as inhibition of bacterial growth measured after 20 hrs by two-fold microdilution assay; type: functional
Enterococcus faecalis [29] = assay: Antibacterial activity against Vancomycin-resistant Enterococcus faecalis ATCC 51299 assessed as inhibition of bacterial growth measured after 20 hrs by two-fold microdilution assay; type: functional
Staphylococcus aureus [30] = assay: Antibacterial activity against Staphylococcus aureus ATCC 25923 assessed as decrease of bacterial growth measured up to 24 hrs by Time kill assay; type: functional, organism-based; settings: dose 4-32 µg/ml, time hrs <=24

## CO[C@H]1/C=C/O[C@@]2(C)Oc3c(C)c(O)c4c(O)c(c(/C=N/N5CCN(C)CC5)c(O)c4c3C2=O)NC(=O)/C(C)=C\C=C\[C@H](C)[C@H](O)[C@@H](C)[C@@H](O)[C@@H](C)[C@H](OC(C)=O)[C@@H]1C [RIFAMPIN]
Staphylococcus aureus [1]
  fold change (FC): >16000
Staphylococcus aureus [2]
  fold change (FC): 8

## CCCCn1ccc2ccc(-c3ccc4c(c3)c3c(C)cccc3c[n+]4C)cc21.[Cl-]
Bacillus subtilis [3]
  Ratio: 2
Enterococcus faecalis [4]
  MIC: 8 µg/mL
Streptococcus pyogenes [5]
  MIC: 16 µg/mL
[6]
  MIC: 16 µg/mL
Staphylococcus aureus [7]
  MBC: 64 µg/mL
Staphylococcus aureus [8]
  MIC: 8 µg/mL
Staphylococcus aureus [9]
  Ratio: 16
Pseudomonas aeruginosa [10]
  Activity: inactive
Staphylococcus aureus [11]
  MBC: 16 µg/mL
[12]
  hemolysis at 1 h: < 8%
Staphylococcus aureus [13]
  Activity: Active
Staphylococcus aureus [14]
  MIC: 4 µg/mL
Staphylococcus aureus [15]
  Activity: Active
Bacillus subtilis [16]
  MIC: 4 µg/mL
Enterococcus faecium [17]
  MIC: 8 µg/mL
Staphylococcus aureus [18]
  Activity: >99.9%
Staphylococcus aureus [19]
  MIC: 8 µg/mL
Streptococcus pyogenes [20]
  MIC: 16 µg/mL
Staphylococcus aureus [21]
  MIC: 1 µg/mL
Escherichia coli
  MIC: > 64 µg/mL
Enterococcus faecium [22]
  MIC: 8 µg/mL
Pseudomonas aeruginosa [23]
  MIC: > 64 µg/mL
Staphylococcus aureus [24]
  Ratio: 8
Bacillus subtilis [25]
  MBC: 8 µg/mL
Bacillus pumilus [26]
  MBC: > 64 µg/mL
Staphylococcus aureus [2]
  fold change (FC): 4
Staphylococcus aureus [27]
  MBC: > 64 µg/mL
Bacillus pumilus [28]
  MIC: 8 µg/mL
Enterococcus faecalis [29]
  MIC: 16 µg/mL
Staphylococcus aureus [30]
  Activity: Dose-Dependent Effect
